Data on 13 molecules can be found in US10364263B2, “Cyclic phosphates and cyclic phosphoramidates for the treatment of neurologic disorders” (Retrophin, Inc., priority 2015, dated 2019).

Like-named read-outs stand apart in the source and are kept apart here.

Data set [1] can be described thus: Permeability in porcine brain endothelial cell blood-brain barrier model. The class given is in vitro ADME. Particulars: pig (endothelial cells), co-cultured with rat astrocytes, pH 7.4, PBECs/As blood-brain barrier model, luminal to basal. The text has this:
Compounds disclosed herein show the potential to reach mammalian brain by crossing the blood-brain barrier (BBB) from systemic circulation. […] The porcine brain endothelial cell permeability assay is an in vitro BBB model to be used for the prediction of central nervous system (CNS) drug permeability in vivo and for ranking or prioritization of compounds according to their permeability. This system can also be used for mechanistic studies and drug delivery strategies via receptor-mediated transport (transcytosis). The system is a two-dimensional co-culture, non-contact model of two types of primary cells: primary brain endothelial cells obtained from fresh porcine brains, and primary rat astrocytes, obtained from neonatal rats. This ensures barrier formation and functional expression of key transporters.
The endothelial cells were cultured on rat-tail collagen type I and human fibronectin coated Transwell polycarbonate inserts (surface area 0.7 cm^2; pore size 0.4 μm) and the inserts were placed in 24-well plates containing confluent rat astrocytes. This system allows for the formation of a differentiated BBB model suitable for compound permeability in 10 days.
On the day of the experiment, culture medium was removed and cells were pre-incubated for 30 min with HBSS containing 20 mM Hepes pH 7.4 and 0.1% BSA. Donor volume (apical) was 400 μl and receiver volume (basal) 900 μl. Compounds were diluted in assay medium (at the desired concentration) and added to the luminal side (to mimic blood to brain passage). Transport was measured usually after 60 min by detecting the amount of compound from the basal (brain side). The integrity of the cell layers was assessed by measuring the transendothelial electrical resistance (TEER) and by monitoring FITC-dextran (40 KDa) permeation. Inserts with TEER values […] were selected for permeability studies. As FITC-dextran cannot freely permeate lipophilic barriers, a high degree of FITC-dextran transport indicates poor integrity of the cell layer and wells with high FITC-dextran permeability were excluded. FITC-dextran was included as internal control in each insert used for permeability studies. Fluorescence was measured using a fluorimetric detector. Radioactivity was measured by scintillation counting. For LC-MS/MS analysis, aliquots (200 μl) from the basal compartment were diluted with an equal volume of 100% acetonitrile containing 0.1% formic acid, centrifuged to remove cell debris, and evaporated under N2. After reconstitution, samples were analyzed by LC-MS/MS. Mass balance was determined considering the amount of compound recovered in the donor and receiver chamber at the end of the assay relative to the amount added to the donor chamber at time 0.
Permeability was defined as the apparent permeability coefficient (Papp), which is a measure of the appearance rate of the compound in the receiver chamber, expressed in cm/s. Papp is calculated according the following equation: Papp[cm/sec]=Vd*ΔMr/A*Md*Δt, Equation 2: where
Vd=volume in the donor compartment in cm^3 or mL;
ΔMr=total amount of compound in the receiver compartment after t seconds;
Md=donor amount (added at time 0)
Δt=time measured in seconds
A=filter area in cm^2 (for 24 well plate, A=0.7 cm^2).
To correct for the contribution of filter and substrate, Papp was also determined for the cell-free system. Permeability of the endothelial cell layer was determined using the following equation: […], Equation 3: where
Ptotal=the P of the total system,
Pf=P for the cell-free filter, and
Pe=P for the endothelial cell layer alone. In this equation, the total resistance of the system towards passage of a substance is additively composed of two […] resistances: that of the cell monolayer and that of the filter.

Data set [2] deals with PANK2 silenced human neuroblastoma IMR32 cells (PANK2−/−). Description: Coenzyme A assay in PANK2 silenced cells (LC-MS quantification of free CoA). It counts as cell-based. Particulars: compound added twice (24 h + 24 h), relative to 0.1% DMSO controls. Summed up:
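PANK2 shRNA-silenced IMR32 neuroblastoma cells were treated with compound (0.1% DMSO) for 24 h, then re-dosed with fresh compound for a further 24 h at 37 °C. TFA extracts of 1×10^6 cells were assayed for free CoA by LC-MS/MS (MRM 768.1→261.6/136.1). Results are given as fold change versus DMSO controls.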

Data set [3] in a line: Chemical stability in aqueous solution (phosphate buffered saline, NMR).
Method: To measure chemical stability in aqueous solution, the half-life (t1/2), or time needed for the concentration to decrease by half, was determined for select compounds in phosphate buffered saline solution. Compounds were dissolved in a solution containing 10 mM phosphate buffer (pH 7.5) and 5% of D2O to a final concentration of −1 mM. All spectra were obtained at 37° C. on a Bruker Avance 600 NMR spectrometer equipped with an inverse broad-band probe with z-gradients. Data were obtained every 15 min for a total time period of 4 h or longer, according to the observed stability. ^31P NMR was performed at 242.55 MHz, with gated decoupling of the protons. An observation frequency range of 14619.9 Hz and 32 K complex data points were used for acquisition. A pulse angle of 90° and a 4-sec pulse cycle were utilized. Thirty-two accumulations were obtained before Fourier transformation of the free induction decay. ^1H NMR spectra were acquired using the 1DNOESY experiment with water presaturation for better solvent suppression. An observation frequency range of 12019.23 Hz, a 10-sec pulse cycle, and 32 K complex data points were used for acquisition. Sixty-four scans were added prior to Fourier transformation. Integral data were obtained using the TopSpin software.
Stability was determined based on analysis of disappearance of the compounds as a function of incubation time. Quantification of test compounds was measured as a peak area relative to an internal standard. The elimination constant, k, was calculated by plotting mean disappearance values on a semi-logarithmic scale and fitting with a best fit linear regression. The half-life (t1/2) expressed in hours was derived using Equation 1: t1/2=ln2/(−k). Equation 1:
Data set [4] can be described thus: Stability in mouse hepatocytes. It counts as in vitro ADME.
Data set [5] in a line: Stability in human hepatocytes. It counts as in vitro ADME. The settings on record: for half-life at 5 µM: t1/2, Human Hepatocytes.
Data set [6] can be described thus: Stability in mouse plasma. It counts as in vitro ADME. Particulars: mouse, plasma. Summed up:
(§1)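 Test compound at 3 μM (0.1% DMSO) was incubated in mouse or human plasma at 37 °C and sampled in duplicate at 0, 10, 20, 30, 40 and 60 min. Reactions were stopped with acetonitrile/formic acid containing internal standard. Remaining parent was measured by UPLC-MS/MS without a calibration curve.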

The nature of data set [7]: Stability in human plasma. It counts as in vitro ADME. The settings on record: human, plasma, 37° C. Summed up: as §1
[8] abbreviates: Diastereoisomer A, read-out: Papp Diastereoisomer A.
Where [9] appears, read: t1/2, Mouse Hepatocytes, Diastereoisomer A.
Where [10] appears, read: t1/2, Mouse Hepatocytes, Diastereoisomer B.
Setting [11] is: pH 7.5, t1/2 (h) Diastereoisomer A, 10 mM phosphate buffer pH 7.5, 37° C., Diastereoisomer A = upfield shift in the 31P NMR.
[12] abbreviates: pH 7.5, t1/2 (h) Diastereoisomer B, 10 mM phosphate buffer pH 7.5, 37° C., Diastereoisomer B.

For `COC(=O)CCNC(=O)[C@@H]1O[P@@](=O)(OCN2C(=O)c3ccccc3S2(=O)=O)OCC1(C)C` (single isomer, unassigned) [Compound No. 2-126], the Papp A→B at 60 min in data set [1] (setting [8]) is 2.74 ×10⁻⁶ cm/s. Also, the “PANK2−/− CoA (Fold Increase): fold increase in Coenzyme A (CoA) levels relative to controls” value in data set [2] was 138.56 Fold Increase.
Turning to `COC(=O)CCNC(=O)[C@@H]1OP(=O)(O)OCC1(C)C` [compound 55, methyl 3-((4R)-2-hydroxy-5,5-dimethyl-2-oxido-1,3,2-dioxaphosphinane-4-carboxamido)propanoate], in data set [2], the “PANK2−/− CoA (Fold Increase): fold increase in Coenzyme A (CoA) levels relative to controls” value turned out to be 1.92 Fold Increase. Further, the half-life at 1 mM in data set [3] (pH 7.5, t1/2 (h), pH 7.5, 37° C., compound not chiral at phosphorous, one value spanning both columns) was greater than 2.5 days.
As to `CC(C)OC(=O)OCO[P@@]1(=O)OCC(C)(C)[C@H](C(=O)NCCC(=O)O)O1` [2-130, 3-((2S,4R)-2-(((isopropoxycarbonyl)oxy)methoxy)-5,5-dimethyl-2-oxido-1,3,2-dioxaphosphinane-4-carboxamido)propanoic acid], the Papp A→B at 60 min in data set [1] (setting [8]) came out at 1.84 ×10⁻⁶ cm/s. Besides, the “PANK2−/− CoA (Fold Increase): fold increase in Coenzyme A (CoA) levels relative to controls” value in data set [2] is listed as 43.5 Fold Increase.
In the case of `COC(=O)CCNC(=O)[C@H](O)C(C)(C)COP1(=O)OCC(C)(C)[C@H](C(=O)NCCC(=O)OC)O1` (stereo partly drawn) [compound 59, methyl 3-((2R)-2-hydroxy-4-(((4R)-4-((3-methoxy-3-oxopropyl)carbamoyl)-5,5-dimethyl-2-oxido-1,3,2-dioxaphosphuian-2-yl)oxy)-3,3-dimethylbutanamido) propanoate], in data set [2], the “PANK2−/− CoA (Fold Increase): fold increase in Coenzyme A (CoA) levels relative to controls” value was 1.52 Fold Increase. Also, the half-life at 5 µM was 20.4 min in data set [4] (setting [9]), less than 15 min in data set [4] (setting [10]), 173 min in data set [5] (Diastereoisomer A) and 92.4 min in data set [5] (Diastereoisomer B). For the same molecule, the half-life at 1 mM in data set [3] (setting [11]) is 3.33 days; in data set [3] (setting [12]), 0.25 days.
For `COC(=O)CCNC(=O)[C@@H]1OP(=O)(OCCCN2CCOCC2)OCC1(C)C` (stereo partly drawn) [compound 52, methyl 3-((4R)-5,5-dimethyl-2-(3-morpholinopropoxy)-2-oxido-1,3,2-dioxaphosphinane-4-carboxamido)propanoate], the half-life at 3 µM in data set [6] is less than 9.6 min; in data set [7] (Diastereoisomer A (upfield shift in 31P NMR), read-out: t1/2, Human Plasma, Diastereoisomer A (converted)), greater than 60 min; in data set [7] (Diastereoisomer B, read-out: t1/2, Human Plasma, Diastereoisomer B (converted)) it was greater than 60 min. In addition, the “t1/2, Mouse Plasma, Diastereoisomer B” value in data set [6] (3 µM) is less than 9.6 min. Moreover, in data set [2], the “PANK2−/− CoA (Fold Increase): fold increase in Coenzyme A (CoA) levels relative to controls” value stood at 1.58 Fold Increase. Besides, the half-life at 1 mM in data set [3] (setting [11]) was 0.979 days; in data set [3] (setting [12]), 0.212 days.
For `COC(=O)CCNC(=O)[C@@H]1O[P@@](=O)(OCC(F)(F)F)OCC1(C)C` [2-138, methyl 3-((2R,4R)-5,5-dimethyl-2-oxido-2-(2,2,2-trifluoroethoxy)-1,3,2-dioxaphosphinane-4-carboxamido)propanoate], the Papp A→B at 60 min in data set [1] (setting [8]) was determined as 15.6 ×10⁻⁶ cm/s. The “PANK2−/− CoA (Fold Increase): fold increase in Coenzyme A (CoA) levels relative to controls” value in data set [2] amounted to 1.13 Fold Increase. The molecule also gave a half-life at 5 µM in data set [5] (Diastereoisomer A) greater than 240 min.
As for `COC(=O)CCNC(=O)[C@@H]1O[P@](=O)(OCc2ccccc2)OCC1(C)C` [compound 54, methyl 3-((2R,4R)-2-(benzyloxy)-5,5-dimethyl-2-oxido-1,3,2-dioxaphosphinane-4-carboxamido)propanoate], the Papp A→B at 60 min in data set [1] (setting [8]) was 18.1 ×10⁻⁶ cm/s. Further, the half-life at 5 µM in data set [4] (setting [9]) and in data set [5] (Diastereoisomer A) was less than 15 min throughout.
`COC(=O)CCNC(=O)[C@@H]1OP(=O)(OCCCOCc2ccccc2)OCC1(C)C` (stereo partly drawn) [compound 53, methyl 3-((4R)-2-(3-(benzyloxy)propoxy)-5,5-dimethyl-2-oxido-1,3,2-dioxaphosphinane-4-carboxamido)propanoate]: the half-life at 5 µM in data set [4] (setting [9]) is 16.8 min; in data set [4] (setting [10]) it was less than 15 min; in data set [5] (Diastereoisomer A), 34.2 min; in data set [5] (Diastereoisomer B), less than 15 min. Besides, the half-life at 1 mM in data set [3] (setting [11]) and in data set [3] (setting [12]) was greater than 3.33 days throughout.
`COC(=O)CCNC(=O)[C@@H]1O[P@@](OCCc2ccccc2)OCC1(C)C` [compound 58, methyl 3-((2S,4R)-5,5-dimethyl-2-phenethoxy-1,3,2-dioxaphosphinane-4-carboxamido)propanoate] yielded a half-life at 1 mM in data set [3] (pH 7.5) greater than 3.33 days.
Regarding `CCc1cc(C(=O)OCO[P@]2(=O)OCC(C)(C)[C@H](C(=O)NCCC(=O)OC)O2)n(C)n1` (single isomer, unassigned) [Compound No. 2-129], the Papp A→B at 60 min in data set [1] (Diastereoisomer B, read-out: Papp Diastereoisomer B) was 11.5 ×10⁻⁶ cm/s. Besides, the “PANK2−/− CoA (Fold Increase): fold increase in Coenzyme A (CoA) levels relative to controls” value in data set [2] came to 88.66 Fold Increase. The half-life at 5 µM in data set [4] (setting [10]) and in data set [5] (Diastereoisomer B) was less than 15 min each time.
For the molecule `COC(=O)CCNC(=O)[C@@H]1OP(=O)(NCCc2ccncc2)OCC1(C)C` (stereo partly drawn) [compound 111, methyl 3-((4R)-5,5-dimethyl-2-oxido-2-((2-(pyridin-4-yl)ethyl)amino)-1,3,2-dioxaphosphinane-4-carboxamido)propanoate], the Papp A→B at 60 min in data set [1] (setting [8]) was 0.7 ×10⁻⁶ cm/s. In addition, in data set [4] (Diastereoisomer A (upfield shift in 31P NMR), 5 μM, 1 million cells/ml, 37° C., mouse hepatocytes, read-out: t1/2, Mouse Hepatocytes, Diastereoisomer A (converted)), the half-life at 5 µM was 28.8 min. Also, the half-life in data set [5] (Diastereoisomer A (upfield shift in 31P NMR), 5 μM, 1 million cells/ml, 37° C., human hepatocytes, read-out: t1/2, Human Hepatocytes, Diastereoisomer A (converted)) was 171 min.
For the molecule `CCc1cc(C(=O)OCO[P@@]2(=O)OCC(C)(C)[C@H](C(=O)NCCC(=O)OC)O2)n(C)n1` (single isomer, unassigned) [Compound No. 2-127], in data set [1] (setting [8]), the Papp A→B at 60 min was found to be 11.8 ×10⁻⁶ cm/s. In data set [2], the “PANK2−/− CoA (Fold Increase): fold increase in Coenzyme A (CoA) levels relative to controls” value stood at 14.41 Fold Increase. The figures for the half-life at 5 µM in data set [4] (setting [9]) and in data set [5] (Diastereoisomer A) were less than 15 min and 17.4 min, respectively.
With `COC(=O)CCNC(=O)[C@@H]1O[P@@](=O)(OCCC(C)C)OCC1(C)C` [compound 50, methyl 3-((2S,4R)-2-(isopentyloxy)-5,5-dimethyl-2-oxido-1,3,2-dioxaphosphinane-4-carboxamido)propanoate], the half-life at 1 mM in data set [3] (setting [11]) is greater than 3.33 days.
